US5571524A, “Agent for curing ischemic myocardial disease” (Unitika Ltd., priority 1994, dated 1996)

Key:
human platelet = conditions: Leuthje and Ogiluie 1984; cited from earlier work
[1] = Japanese Laid-Open Patent Application 5-286861; cited from earlier work
Mongrel dogs [2] = test: Coronary blood flow increase effect, nonischemic condition; type: in vivo; conditions: for Coronary blood flow: N = 1 - 2; for coronary blood flow increase: nonischemic
Method: (§1) Mongrel dogs weighing 18-22 kg were anesthetized with pentobarbital sodium (30 mg/kg). The trachea was intubated, and the dog was ventilated with room air with oxygen. The chest was opened through the left fifth intercostal space, and the heart was suspended in a pericardial cradle. The left anterior descending coronary artery was cannulated and perfused with blood via the carotid artery through an extracorporeal bypass tube after heparinization (500 units/kg). Coronary blood flow (CBF) was measured with an electromagnetic flow probe attached to the bypass tube, and coronary perfusion pressure (CPP) was monitored at the tip of the coronary arterial cannula. A small, short collecting tube was cannulated into a small coronary vein near the center of the perfused area to sample coronary venous blood. The drained venous blood was collected in a reservoir placed at the level of the left atrium. A high fidelity of left ventricular pressure and its first derivative were measured by a micromanometer (model P-5, Konigsberg Instruments, Inc., Pasadena, Calif.) placed in the left ventricular cavity through the apex. A pair of ultrasonic crystals was placed in the center of the perfused area about 1 cm apart to measure myocardial segment length with an ultrasonic dimension gauge (5 MHz, Schuessler, Cardiff by the Sea, Calif.). End-diastolic length (EDL) was determined at the R wave of the electrocardiogram, and end-systolic length (ESL) was determined at the minimal dP/dt. Fractional shortening was calculated by (EDL-ESL)/EDL as an index of myocardial contractility of the perfused area.
After stabilization, a physiological saline solution […], with the dosage thereof increased to 0.5, 1, 2, 4 and 8 μg/kg/min, and the changes in coronary blood flow were measured in order to assess the coronary blood flow increase effect of Ap4A.
8-sulfophenyltheophylline (hereinafter referred to as 8-SPT) serving as adenosine P1 receptor antagonist with a dose of 25 μg/kg/min was tested.
The above test was also repeated by replacing 8-SPT with N^G -nitro-L-arginine methyl ester (hereinafter referred to as L-NAME) serving as an endothelial-cell-induced nitric oxide (NO) synthesis inhibitor with a dose of 3 μg/kg/min(ic).
The above test was then repeated using 8-SPT and L-NAME in combination.

[3] = cited from earlier work
Mongrel dogs [4] = test: Lactate extraction ratio and pH of venous blood during ischemia; type: in vivo; conditions: ischemia (1/3 blood flow), N = 2
Method: as §1
Namely, the lactate extraction ratio was obtained by coronary arteriovenous difference in lactate concentration multiplied by 100 and divided by arterial lactate concentration.
(§2) After stabilization, CPP was decreased with partial occlusion of the bypass tube to the left anterior descending coronary artery such that CBF decreased to one third of the control flow. The low CPP was maintained during this test.
(§3) Blood sampling from coronary veins and coronary arteries was conducted. Then the intracoronary administration of Ap4A was stopped. The lowered coronary perfusion pressure was further maintained for 10 minutes.
(§4) The above test was repeated by replacing Ap4A with adenosine with the dosage thereof being changed to 4, 8 and 16 μg/kg/min.
As mentioned previously, in the above-mentioned experimental systems, lactate extraction ratio and pH of venous blood were measured at the time of the intracoronary administration of Ap4A and also at the time of the intracoronary administration of adenosine.

[5] = system: rabbit mesenteric arteries; conditions: R. Busse et al. 1988; cited from earlier work
Mongrel dogs [6] = test: Myocardial oxygen consumption (MVO2), nonischemic condition; type: in vivo; conditions: for Myocardial oxygen consumption: control 9.1
Method: as §1
After stabilization, a physiological saline solution prepared by dissolving Ap4A.4Na in physiological saline was continuously infused into the coronary artery, with the dosage thereof increased to 0.5, 1, 2, 4 and 8 μg/kg/min, and the changes in coronary blood flow were measured in order to assess the coronary blood flow increase effect of Ap4A.
Changes in myocardial oxygen consumption (MVO2) (ml/100 g/min) caused by the administration of Ap4A were measured as shown in TABLE 2.

Mongrel dogs [7] = test: Amelioration of myocardial ischemia: coronary blood flow, fractional shortening and perfusion pressure during factitious 1/3 blood flow; type: in vivo; conditions: for Myocardial fractional shortening / Coronary blood flow / Coronary perfusion pressure: ischemia (1/3 blood flow), N = 2
Method: as §1, §2, §3, §4

coronary vessels = conditions: at normal time; cited from earlier work
[8] = Japanese Laid-Open Patent Application 3-167126; cited from earlier work

In the case of `Nc1ncnc2c1ncn2[C@@H]1O[C@H](COP(=O)(O)OP(=O)(O)OP(=O)(O)OP(=O)(O)OC[C@H]2O[C@@H](n3cnc4c(N)ncnc43)[C@H](O)[C@@H]2O)[C@@H](O)[C@H]1O` [Ap4A, Diadenosine 5',5"'-p^1, p^4 -tetraphosphate], the “ADP-induced human platelet aggregation inhibitory effect” value (human platelet) is listed as “ADP-induced human platelet aggregation inhibitory effect”, the deliberated hypotensive effect [1] is listed as “deliberated hypotensive effect” and the “coronary blood flow increase effect of Ap4A in presence of 8-SPT” value (Mongrel dogs [2]; 8-SPT 25 μg/kg/min) is listed as “partially inhibited”. The “coronary blood flow increase effect of Ap4A in presence of 8-SPT and L-NAME” value (Mongrel dogs [2]; 8-SPT and L-NAME in combination) was “not completely inhibited”, the “coronary blood flow increase effect of Ap4A in presence of L-NAME” value (Mongrel dogs [2]; L-NAME 3 μg/kg/min (ic)) was “only slightly inhibited” and the Coronary blood flow (Mongrel dogs [2]; Untreated (no inhibitor), Ap4A 0.5 μg/kg/min intracoronary, control 93.7) was 104.1 ml/100 g/min. It also gave a Coronary blood flow (Mongrel dogs [2]; Untreated (no inhibitor), Ap4A 1 μg/kg/min intracoronary, control 93.7) of 122.2 ml/100 g/min, a Coronary blood flow (Mongrel dogs [2]; Untreated (no inhibitor), Ap4A 2 μg/kg/min intracoronary, control 93.7) of 137.6 ml/100 g/min and a Coronary blood flow (Mongrel dogs [2]; Untreated (no inhibitor), Ap4A 4 μg/kg/min intracoronary, control 93.7) of 158.9 ml/100 g/min. For the same compound, the Coronary blood flow (Mongrel dogs [2]; Untreated (no inhibitor), Ap4A 8 μg/kg/min intracoronary, control 93.7) was 202.2 ml/100 g/min, the “coronary blood flow increase” value (Mongrel dogs [2]; intracoronary 0.5 to 8 μg/kg/min) was “significantly increasing the coronary blood flow dose-dependently” and the “coronary blood flow increase” value (Mongrel dogs [2]; intravenous administration) was “This effect was also observed”. It also gave a Coronary blood flow (Mongrel dogs [2]; with 8-SPT 25 μg/kg/min, Ap4A 0.5 μg/kg/min, control 97.0) of 98.6 ml/100 g/min, a Coronary blood flow (Mongrel dogs [2]; with 8-SPT 25 μg/kg/min, Ap4A 1 μg/kg/min, control 97.0) of 96.8 ml/100 g/min and a Coronary blood flow (Mongrel dogs [2]; with 8-SPT 25 μg/kg/min, Ap4A 2 μg/kg/min, control 97.0) of 106.1 ml/100 g/min. For the same compound, the Coronary blood flow (Mongrel dogs [2]; with 8-SPT 25 μg/kg/min, Ap4A 4 μg/kg/min, control 97.0) was 117.0 ml/100 g/min, the Coronary blood flow (Mongrel dogs [2]; with 8-SPT 25 μg/kg/min, Ap4A 8 μg/kg/min, control 97.0) was 124.5 ml/100 g/min and the Coronary blood flow (Mongrel dogs [2]; with 8-SPT + L-NAME, Ap4A 0.5 μg/kg/min, control 97.1) was 97.1 ml/100 g/min. For the same compound, the Coronary blood flow (Mongrel dogs [2]; with 8-SPT + L-NAME, Ap4A 1 μg/kg/min, control 97.1) was 108.6 ml/100 g/min, the Coronary blood flow (Mongrel dogs [2]; with 8-SPT + L-NAME, Ap4A 2 μg/kg/min, control 97.1) was 102.9 ml/100 g/min and the Coronary blood flow (Mongrel dogs [2]; with 8-SPT + L-NAME, Ap4A 4 μg/kg/min, control 97.1) was 114.3 ml/100 g/min. The Coronary blood flow (Mongrel dogs [2]; with 8-SPT + L-NAME, Ap4A 8 μg/kg/min, control 97.1) was 120.0 ml/100 g/min, the Coronary blood flow (Mongrel dogs [2]; with L-NAME 3 μg/kg/min (ic), Ap4A 0.5 μg/kg/min, control 90.3) was 100.0 ml/100 g/min and the Coronary blood flow (Mongrel dogs [2]; with L-NAME 3 μg/kg/min (ic), Ap4A 1 μg/kg/min, control 90.3) was 119.4 ml/100 g/min. It also gave a Coronary blood flow (Mongrel dogs [2]; with L-NAME 3 μg/kg/min (ic), Ap4A 2 μg/kg/min, control 90.3) of 122.6 ml/100 g/min, a Coronary blood flow (Mongrel dogs [2]; with L-NAME 3 μg/kg/min (ic), Ap4A 4 μg/kg/min, control 90.3) of 151.6 ml/100 g/min and a Coronary blood flow (Mongrel dogs [2]; with L-NAME 3 μg/kg/min (ic), Ap4A 8 μg/kg/min, control 90.3) of 219.4 ml/100 g/min. For the same compound, the degradation in vivo [3] was “degraded in vivo to ATP and AMP, which are eventually degraded to adenosine”, the “pH of venous blood” value (Mongrel dogs [4]; Ap4A 4 μg/kg/min intracoronary, control 7.39, 1/3 control 7.23) was 7.29 and the Lactate extraction ratio (Mongrel dogs [4]; Ap4A 4 μg/kg/min intracoronary, control 28.3, 1/3 control -39.8) was -15.8%. The “pH of venous blood” value (Mongrel dogs [4]; Ap4A administration stopped, 1/3 control 7.23) was 7.19, the Lactate extraction ratio (Mongrel dogs [4]; Ap4A administration stopped, 1/3 control -39.8) was -48.6% and the “vasodilating effect on rabbit mesenteric arteries” value [5] was “vasodilating effect on rabbit mesenteric arteries”. It also gave a Myocardial oxygen consumption (Mongrel dogs [6]; Ap4A 0.5 μg/kg/min) of 9.9 ml/100 g/min, a Myocardial oxygen consumption (Mongrel dogs [6]; Ap4A 1 μg/kg/min) of 9.0 ml/100 g/min and a Myocardial oxygen consumption (Mongrel dogs [6]; Ap4A 2 μg/kg/min) of 8.7 ml/100 g/min. For the same compound, the Myocardial oxygen consumption (Mongrel dogs [6]; Ap4A 4 μg/kg/min) was 8.7 ml/100 g/min, the Myocardial oxygen consumption (Mongrel dogs [6]; Ap4A 8 μg/kg/min) was 9.5 ml/100 g/min and the “myocardial oxygen consumption (MVO2) change” value (Mongrel dogs [6]; Ap4A 0.5 to 8 μg/kg/min) was “neither largely increased nor decreased”. For the same compound, the Myocardial fractional shortening (Mongrel dogs [7]; Ap4A 4 μg/kg/min intracoronary 10 minutes, control 24.7, 1/3 control 4.9) was 11.5%, the Coronary blood flow (Mongrel dogs [7]; Ap4A 4 μg/kg/min intracoronary 10 minutes, control 90.5, 1/3 control 30.4) was 48.2 ml/100 g/min and the Coronary perfusion pressure (Mongrel dogs [7]; Ap4A 4 μg/kg/min intracoronary 10 minutes, control 104, 1/3 control 54) was 54 mmHg. The Myocardial fractional shortening (Mongrel dogs [7]; Ap4A administration stopped, 1/3 control 4.9) was 4.8%, the Coronary blood flow (Mongrel dogs [7]; Ap4A administration stopped, 1/3 control 30.4) was 31.9 ml/100 g/min and the Coronary perfusion pressure (Mongrel dogs [7]; Ap4A administration stopped, 1/3 control 54) was 54 mmHg. The “prevention of decrease in myocardial fractional shortening” value (Mongrel dogs [7]; ischemia, Ap4A 4 μg/kg/min) was “significantly preventing a decrease in myocardial fractional shortening”, the “amelioration effect on myocardial ischemia” value (Mongrel dogs [7]; mongrel dogs in a state of excessive ischemia) was “noticeable amelioration effect on myocardial ischemia” and the “vasodilating effect on coronary vessels” value (coronary vessels) was “vasodilating effect on coronary vessels at normal time”. For the same compound, the anti-arrhythmia effect [8] was “anti-arrhythmia effect”.
